In paper PMC11915372, “Identification of a Series Containing a Pentafluorophenyl Moiety That Targets Pks13 to Inhibit Growth of Mycobacterium tuberculosis” (ACS Infectious Diseases, 2025):
“And” between values parts separate entries of the source, which are not always exact repeats. Identical values can stand only once.

Tested on: H37Rv cells
Assay type: cell-based, Mycobacterium tuberculosis

CN(C)c1ncnc2sc(-c3c(F)c(F)c(F)c(F)c3F)nc12.Cl [Compound 1, CN(C)c1ncnc2sc(nc12)-c1c(c(c(c(c1F)F)F)F)F]
frequency of resistant colonies: 10^–7 and 10^–8
